Patent publication US20200038338A1, “LONG TERM DRUG DELIVERY BY TATTOO” (priority 2018, published 2020)

Experiments:
psoriatic plaques = experiment: Treatment of psoriasis: methotrexate delivered to the dermal layer by tattoo machine; type: in vivo; settings: control: 25 mg/ml methotrexate by injection once a month for 9 months
[1] = test system: terminal hairs of beard or scalp (alopecia); experiment: Treatment of alopecia: minoxidil delivered to the dermis by tattoo machine; type: in vivo; settings: 5 wt % minoxidil suspension in PEG 400 by tattoo to dermis, once every 2 months, after 6 months (3 sessions); versus control side with minoxidil in water to saturation; three subjects
Method: A suspension of minoxidil suspension at 5 wt % is created in a PEG 400 vehicle. As a control minoxidil is added to water to saturation. The test and control agents are delivered by tattoo machine to the dermis on independent sides of the face (either beard, eyebrow, or scalp) of the same subject once every 2 months for 6 months (i.e. 3 administrations). Three different subjects were tested. The side that was treated in the beard or scalp had approximately 300% more terminal (thick, strong) hairs per unit area, after 6 months (3 sessions).

[2] = test system: androgenetic alopecia (hair loss); settings: minoxidil microinjections once a month for four months; cited from earlier work
[3] = test system: basal cell carcinoma (BCC); experiment: Treatment of basal cell carcinoma: vismodegib delivered by tattoo machine

## CN(Cc1cnc2nc(N)nc(N)c2n1)c1ccc(C(=O)N[C@@H](CCC(=O)O)C(=O)O)cc1 [methotrexate]
Psoriatic plaques
  side effects, control: increased liver enzymes

## Nc1cc(N2CCCCC2)nc(N)[n+]1[O-] [minoxidil]
[1]
  more terminal (thick, strong) hairs per unit area on the treated side: approximately 300%
[2]
  side effects noted by the subjects: No side effects were noted by the subjects, besides minor localized pain

## CS(=O)(=O)c1ccc(C(=O)Nc2ccc(Cl)c(-c3ccccn3)c2)c(Cl)c1 [vismodegib]
[3]; control: vismodegib orally for 6 months
  side effects, control: muscle tremors, loss of appetite, reduction of smell and taste
[3]; control: vismodegib orally, first 6 months
  BCCs resolved, control: 50%
[3]; vismodegib suspension with polyethylene glycol by tattoo machine, once a week for 6 months
  clearance of the BCC: 90%
